Data published in US20230365627A1, “MACROCYCLIC PEPTIDE BORONATE IMMUNOMODULATORS” (Bristol-Myers Squibb Company, priority 2020, published 2023).
*1 amine or outer side, *2 acyl side, *3 side chain or, on linkers, in order; H or OH if unused. Where a SMILES comes first, the peptide text is derived from it. Bridges are numbered along the chain shown (N, C = ends). [ ]: non-standard residue; d: D form. Trp(1-CH2CO) = O=C([C@H](Cc1cn(CC(=O)[*:3])c2ccccc12)N[*:1])[*:2]; X7 = O=C([C@H](CNCc1cc(B(O)O[*:3])ccc1OCc1ccccc1)N[*:1])[*:2]; X22 = O=C([C@H](CNCc1c(B(O)O[*:3])ccc(Cl)c1F)N[*:1])[*:2]; X28 = O=C([C@H](CNCc1cc(F)c(F)cc1B(O)O[*:3])N[*:1])[*:2]; Trp(1-CH2COOH) = N[C@@H](Cc1cn(CC(=O)O)c2ccccc12)C(=O)O; X21 = Cc1ccc(B(O)O[*:3])c(CNC[C@H](N[*:1])C(=O)[*:2])c1; X31 = O=C([C@H](CNCc1ccc(Cl)cc1B(O)O[*:3])N[*:1])[*:2]; X19 = O=C([C@H](CNCc1cccc(B(O)O[*:3])c1F)N[*:1])[*:2]; X8 = O=C([C@H](CNCc1ccc(B(O)O[*:3])cc1Cl)N[*:1])[*:2]; X3 = O=C([C@H](CNCc1ccc(B(O)O[*:3])cc1F)N[*:1])[*:2]; X1 = Cc1cc(CNC[C@H](N[*:1])C(=O)[*:2])cc(C)c1B(O)O; X10 = COc1ccc(CNC[C@H](N[*:1])C(=O)[*:2])cc1B(O)O; X20 = O=C([C@H](CCNCc1cccc(B(O)O)c1F)N[*:1])[*:2]; Hyp = O=C(O)[C@@H]1C[C@@H](O)CN1; NMeNle = CCCC[C@H](NC)C(=O)O; NMeA = CN[C@@H](C)C(=O)O; Dab = NCC[C@H](N)C(=O)O

Biological target: PD-1/PD-L1 (Homo sapiens (Human), UniProt Q9NZQ7)
Sequence (Q9NZQ7 18-239): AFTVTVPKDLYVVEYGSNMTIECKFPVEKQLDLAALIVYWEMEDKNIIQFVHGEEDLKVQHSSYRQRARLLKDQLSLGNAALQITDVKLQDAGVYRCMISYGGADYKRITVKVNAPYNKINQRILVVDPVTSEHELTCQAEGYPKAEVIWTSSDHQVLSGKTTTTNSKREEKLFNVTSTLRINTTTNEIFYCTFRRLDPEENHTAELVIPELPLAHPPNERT
Test: PD-1/PD-L1 Homogenous Time-Resolved Fluorescence (HTRF) binding assay
Settings: PD-L1-His 10 nM, PD-1-Ig 20 nM; read-out: HTRF IC50
Excerpt: Methods for Testing the Ability of Macrocyclic Peptides to Compete for the Binding of PD-1 to PD-L1 Using Homogenous Time-Resolved Fluorescence (HTRF) Binding Assays
The ability of the compounds of formula (I) to bind to PD-L1 was investigated using a PD-1/PD-L1 Homogenous Time-Resolved Fluorescence (HTRF) binding assay.
Homogenous Time-Resolved Fluorescence (HTRF) Binding Assay
The interaction of PD-1 and PD-L1 can be assessed using soluble, purified preparations of the extracellular domains of the two proteins. The PD-1 and PD-L1 protein extracellular domains were expressed as fusion proteins with detection tags, for PD-1, the tag was the Fc portion of Immunoglobulin (PD-1-Ig) and for PD-L1 it was the 6 histidine motif (PD-L1-His). All binding studies were performed in an HTRF assay buffer consisting of dPBS supplemented with 0.1% […] bovine serum albumin and 0.05% (v/v) Tween-20. For the h/PD-L1-His binding assay, inhibitors were pre-incubated with PD-L1-His (10 nM final) for 15 m in 4 μl of assay buffer, followed by addition of PD-1-Ig (20 nM final) in 1 μl of assay buffer and further incubation for 15 m. HTRF detection was achieved using europium cryptate-labeled anti-Ig (1 nM final) and allophycocyanin (APC) labeled anti-His (20 nM final). Antibodies were diluted in HTRF detection buffer and 5 μl was dispensed on top of the binding reaction. The reaction mixture was allowed to equilibrate for 30 minutes and the resulting signal (665 nm/620 nm ratio) was obtained using an EnVision fluorometer. Additional binding assays were established between the human proteins PD-1-Ig/PD-L2-His (20 & 5 nM, respectively) and CD80-His/PD-L1-Ig (100 & 10 nM, respectively).
Recombinant Proteins: Human PD-1 (25-167) with a C-terminal human Fc domain of immunoglobulin G (Ig) epitope tag [hPD-1 (25-167)-3S-IG] and human PD-L1 (18-239) with a C-terminal His epitope tag [hPD-L1(18-239)-TVMV-His] were expressed in HEK293T cells and purified sequentially by ProteinA affinity chromatography and size exclusion chromatography. Human PD-L2-His and CD80-His was obtained through commercial sources.
Table 1 lists the IC50 values for representative examples of this disclosure measured in the PD-1/PD-L1 Homogenous Time-Resolved Fluorescence (HTRF) binding assay.

Row | SMILES | IC50 [nM]
1 | CCCC[C@H]1C(=O)N(C)[C@@H](CCCC)C(=O)N[C@@H](CC(C)C)C(=O)N[C@H](C(=O)NCC(N)=O)CSCC(=O)N[C@@H](Cc2ccc(O)cc2)C(=O)N(C)[C@@H](C)C(=O)N[C@@H](CC(N)=O)C(=O)N2CCC[C@H]2C(=O)N[C@H]2CNCc3ccc(cc3F)B(O)OC(=O)Cn3cc(c4ccccc43)C[C@H](NC(=O)[C@H](CCN)NC(=O)[C@H](Cc3c[nH]c4ccccc34)NC(=O)[C@@H]3C[C@@H](O)CN3C(=O)[C@H](CC(C)C)NC2=O)C(=O)N1C [Example 1013] ({CH2CO}-Y[NMeA]NP[X3]L[Hyp]W[Dab][Trp(1-CH2CO)][NMeNle][NMeNle]LCG-NH2; ester 5-10; thioether N-14) | 3.7
2 | CCCC[C@H]1C(=O)N(C)[C@@H](CCCC)C(=O)N[C@@H](CC(C)C)C(=O)N[C@H](C(=O)NCC(N)=O)CSCC(=O)N[C@@H](Cc2ccc(O)cc2)C(=O)N(C)[C@@H](C)C(=O)N[C@@H](CC(N)=O)C(=O)N2CCC[C@H]2C(=O)N[C@@H](CNCc2cc(C)c(B(O)O)c(C)c2)C(=O)N[C@@H](CC(C)C)C(=O)N2C[C@H](O)C[C@H]2C(=O)N[C@@H](Cc2c[nH]c3ccccc23)C(=O)N[C@@H](CCN)C(=O)N[C@@H](Cc2cn(CC(=O)O)c3ccccc23)C(=O)N1C [Example 1014] ({CH2CO}-Y[NMeA]NP[X1]L[Hyp]W[Dab][Trp(1-CH2COOH)][NMeNle][NMeNle]LCG-NH2; thioether N-14) | 8.2
3 | CCCC[C@H]1C(=O)N(C)[C@@H](CCCC)C(=O)N[C@@H](CC(C)C)C(=O)N[C@H](C(=O)NCC(N)=O)CSCC(=O)N[C@@H](Cc2ccc(O)cc2)C(=O)N(C)[C@@H](C)C(=O)N[C@@H](CC(N)=O)C(=O)N2CCC[C@H]2C(=O)N[C@H]2CNCc3cccc(c3F)B(O)OC(=O)Cn3cc(c4ccccc43)C[C@H](NC(=O)[C@H](CCN)NC(=O)[C@H](Cc3c[nH]c4ccccc34)NC(=O)[C@@H]3C[C@@H](O)CN3C(=O)[C@H](CC(C)C)NC2=O)C(=O)N1C [Example 1015] ({CH2CO}-Y[NMeA]NP[X19]L[Hyp]W[Dab][Trp(1-CH2CO)][NMeNle][NMeNle]LCG-NH2; ester 5-10; thioether N-14) | 6.7
4 | CCCC[C@H]1C(=O)N(C)[C@@H](CCCC)C(=O)N[C@@H](CC(C)C)C(=O)N[C@H](C(=O)NCC(N)=O)CSCC(=O)N[C@@H](Cc2ccc(O)cc2)C(=O)N(C)[C@@H](C)C(=O)N[C@@H](CC(N)=O)C(=O)N2CCC[C@H]2C(=O)N[C@H]2CNCc3cc(C)ccc3B(O)OC(=O)Cn3cc(c4ccccc43)C[C@H](NC(=O)[C@H](CCN)NC(=O)[C@H](Cc3c[nH]c4ccccc34)NC(=O)[C@@H]3C[C@@H](O)CN3C(=O)[C@H](CC(C)C)NC2=O)C(=O)N1C [Example 1016] ({CH2CO}-Y[NMeA]NP[X21]L[Hyp]W[Dab][Trp(1-CH2CO)][NMeNle][NMeNle]LCG-NH2; ester 5-10; thioether N-14) | 8.3
5 | CCCC[C@H]1C(=O)N(C)[C@@H](CCCC)C(=O)N[C@@H](CC(C)C)C(=O)N[C@H](C(=O)NCC(N)=O)CSCC(=O)N[C@@H](Cc2ccc(O)cc2)C(=O)N(C)[C@@H](C)C(=O)N[C@@H](CC(N)=O)C(=O)N2CCC[C@H]2C(=O)N[C@H]2CNCc3c(ccc(Cl)c3F)B(O)OC(=O)Cn3cc(c4ccccc43)C[C@H](NC(=O)[C@H](CCN)NC(=O)[C@H](Cc3c[nH]c4ccccc34)NC(=O)[C@@H]3C[C@@H](O)CN3C(=O)[C@H](CC(C)C)NC2=O)C(=O)N1C [Example 1017] ({CH2CO}-Y[NMeA]NP[X22]L[Hyp]W[Dab][Trp(1-CH2CO)][NMeNle][NMeNle]LCG-NH2; ester 5-10; thioether N-14) | 7.1
6 | CCCC[C@H]1C(=O)N(C)[C@@H](CCCC)C(=O)N[C@@H](CC(C)C)C(=O)N[C@H](C(=O)NCC(N)=O)CSCC(=O)N[C@@H](Cc2ccc(O)cc2)C(=O)N(C)[C@@H](C)C(=O)N[C@@H](CC(N)=O)C(=O)N2CCC[C@H]2C(=O)N[C@H]2CNCc3ccc(Cl)cc3B(O)OC(=O)Cn3cc(c4ccccc43)C[C@H](NC(=O)[C@H](CCN)NC(=O)[C@H](Cc3c[nH]c4ccccc34)NC(=O)[C@@H]3C[C@@H](O)CN3C(=O)[C@H](CC(C)C)NC2=O)C(=O)N1C [Example 1018] ({CH2CO}-Y[NMeA]NP[X31]L[Hyp]W[Dab][Trp(1-CH2CO)][NMeNle][NMeNle]LCG-NH2; ester 5-10; thioether N-14) | 4.9
7 | CCCC[C@H]1C(=O)N(C)[C@@H](CCCC)C(=O)N[C@@H](CC(C)C)C(=O)N[C@H](C(=O)NCC(N)=O)CSCC(=O)N[C@@H](Cc2ccc(O)cc2)C(=O)N(C)[C@@H](C)C(=O)N[C@@H](CC(N)=O)C(=O)N2CCC[C@H]2C(=O)N[C@H]2CNCc3cc(ccc3OCc3ccccc3)B(O)OC(=O)Cn3cc(c4ccccc43)C[C@H](NC(=O)[C@H](CCN)NC(=O)[C@H](Cc3c[nH]c4ccccc34)NC(=O)[C@@H]3C[C@@H](O)CN3C(=O)[C@H](CC(C)C)NC2=O)C(=O)N1C [Example 1019] ({CH2CO}-Y[NMeA]NP[X7]L[Hyp]W[Dab][Trp(1-CH2CO)][NMeNle][NMeNle]LCG-NH2; ester 5-10; thioether N-14) | 4.8
8 | CCCC[C@H]1C(=O)N(C)[C@@H](CCCC)C(=O)N[C@@H](CC(C)C)C(=O)N[C@H](C(=O)NCC(N)=O)CSCC(=O)N[C@@H](Cc2ccc(O)cc2)C(=O)N(C)[C@@H](C)C(=O)N[C@@H](CC(N)=O)C(=O)N2CCC[C@H]2C(=O)N[C@H]2CNCc3ccc(cc3Cl)B(O)OC(=O)Cn3cc(c4ccccc43)C[C@H](NC(=O)[C@H](CCN)NC(=O)[C@H](Cc3c[nH]c4ccccc34)NC(=O)[C@@H]3C[C@@H](O)CN3C(=O)[C@H](CC(C)C)NC2=O)C(=O)N1C [Example 1020] ({CH2CO}-Y[NMeA]NP[X8]L[Hyp]W[Dab][Trp(1-CH2CO)][NMeNle][NMeNle]LCG-NH2; ester 5-10; thioether N-14) | 14
9 | CCCC[C@H]1C(=O)N(C)[C@@H](CCCC)C(=O)N[C@@H](CC(C)C)C(=O)N[C@H](C(=O)NCC(N)=O)CSCC(=O)N[C@H]2Cc3ccc(cc3)OB(O)c3ccc(C)cc3CNCC[C@@H]3NC(=O)[C@H](Cc4c[nH]c5ccccc45)NC(=O)[C@@H]4C[C@@H](O)CN4C(=O)[C@H](CC(C)C)NC(=O)[C@H](CNCc4cc(C)ccc4B(O)OC(=O)Cn4cc(c5ccccc54)C[C@H](NC3=O)C(=O)N1C)NC(=O)[C@@H]1CCCN1C(=O)[C@H](CC(N)=O)NC(=O)[C@H](C)N(C)C2=O [Example 1021] | 5.3
10 | CCCC[C@H]1C(=O)N(C)[C@@H](CCCC)C(=O)N[C@@H](CC(C)C)C(=O)N[C@H](C(=O)NCC(N)=O)CSCC(=O)N[C@@H](Cc2ccc(O)cc2)C(=O)N(C)[C@@H](C)C(=O)N[C@@H](CC(N)=O)C(=O)N2CCC[C@H]2C(=O)N[C@H]2CNCc3cccc(c3F)B(O)OC(=O)Cn3cc(c4ccccc43)C[C@H](NC(=O)[C@H](CCNCc3cccc(B(O)O)c3F)NC(=O)[C@H](Cc3c[nH]c4ccccc34)NC(=O)[C@@H]3C[C@@H](O)CN3C(=O)[C@H](CC(C)C)NC2=O)C(=O)N1C [Example 1022] ({CH2CO}-Y[NMeA]NP[X19]L[Hyp]W[X20][Trp(1-CH2CO)][NMeNle][NMeNle]LCG-NH2; ester 5-10; thioether N-14) | 5
11 | CCCC[C@H]1C(=O)N(C)[C@@H](CCCC)C(=O)N[C@@H](CC(C)C)C(=O)N[C@H](C(=O)NCC(N)=O)CSCC(=O)N[C@@H](Cc2ccc(O)cc2)C(=O)N(C)[C@@H](C)C(=O)N[C@@H](CC(N)=O)C(=O)N2CCC[C@H]2C(=O)N[C@@H](CNCc2ccc(OC)c(B(O)O)c2)C(=O)N[C@@H](CC(C)C)C(=O)N2C[C@H](O)C[C@H]2C(=O)N[C@@H](Cc2c[nH]c3ccccc23)C(=O)N[C@@H](CCN)C(=O)N[C@@H](Cc2cn(CC(=O)O)c3ccccc23)C(=O)N1C [Example 1023] ({CH2CO}-Y[NMeA]NP[X10]L[Hyp]W[Dab][Trp(1-CH2COOH)][NMeNle][NMeNle]LCG-NH2; thioether N-14) | 9.7
12 | CCCC[C@H]1C(=O)N(C)[C@@H](CCCC)C(=O)N[C@@H](CC(C)C)C(=O)N[C@H](C(=O)NCC(N)=O)CSCC(=O)N[C@@H](Cc2ccc(O)cc2)C(=O)N(C)[C@@H](C)C(=O)N[C@@H](CC(N)=O)C(=O)N2CCC[C@H]2C(=O)N[C@H]2CNCc3cc(F)c(F)cc3B(O)OC(=O)Cn3cc(c4ccccc43)C[C@H](NC(=O)[C@H](CCN)NC(=O)[C@H](Cc3c[nH]c4ccccc34)NC(=O)[C@@H]3C[C@@H](O)CN3C(=O)[C@H](CC(C)C)NC2=O)C(=O)N1C [Example 1024] ({CH2CO}-Y[NMeA]NP[X28]L[Hyp]W[Dab][Trp(1-CH2CO)][NMeNle][NMeNle]LCG-NH2; ester 5-10; thioether N-14) | 9.4
